Results from paper PMC6112376, “Comprehensive Analyses and Prioritization of Tox21 10K Chemicals Affecting Mitochondrial Function by in-Depth Mechanistic Studies” (Environmental Health Perspectives, 2018).
Counter-ions that a name gives are not always drawn. Like-named read-outs stand apart in the source and are kept apart here.

Experiments:
HepG2 cells [1] = details: cited from earlier work; for IC50: read-out: MMP assays IC50 (µM), qHTS-HepG2
HepG2 cells [2] = experiment: cells; details: Homo sapiens; for IC50: HepG2, read-out: MMP assays IC50 (µM) HepG2; for Emax: HepG2, read-out: MMP assays efficacy (%) HepG2
rat primary hepatocytes [3] = experiment: MMP assay in rat primary hepatocytes; details: for IC50: Rattus norvegicus, Hepatocyte, read-out: MMP assays IC50 (µM) Rat Hepatocytes
rat primary hepatocytes [4] = system: rat primary hepatocytes

Compound: CC(=O)O[C@H]1C[C@H](O[C@H]2[C@@H](O)C[C@H](O[C@H]3[C@@H](O)C[C@H](O[C@H]4CC[C@@]5(C)[C@H](CC[C@@H]6[C@@H]5C[C@@H](O)[C@]5(C)[C@@H](C7=CC(=O)OC7)CC[C@]65O)C4)O[C@@H]3C)O[C@@H]2C)O[C@H](C)[C@H]1O[C@@H]1O[C@H](CO)[C@@H](O)[C@H](O)[C@H]1O [Lanatoside C]
- MMP assays efficacy (%) qHTS-HepG2 (HepG2 cells [1]): -51±10%
- IC50 (HepG2 cells [1]): 0.78 ± 0.14 µM
- IC50 (HepG2 cells [2]): 0.31 µM
- Emax (HepG2 cells [2]): 92%
- MMP assays IC50 (µM) Rat Hepatocytes (rat primary hepatocytes [3]): inactive
- MMP assays efficacy (%) Rat Hepatocytes (rat primary hepatocytes [4]): inactive

Compound: CC(C)=CCC1=C(O)C(=O)c2ccccc2C1=O [Lapachol]
- MMP assays efficacy (%) qHTS-HepG2 (HepG2 cells [1]): -117±24%
- IC50 (HepG2 cells [1]): 26.1 ± 1.7 µM
- IC50 (HepG2 cells [2]): 31.6 µM
- Emax (HepG2 cells [2]): 113%
- MMP assays IC50 (µM) Rat Hepatocytes (rat primary hepatocytes [3]): inactive
- MMP assays efficacy (%) Rat Hepatocytes (rat primary hepatocytes [4]): inactive

Compound: O=C(NC(=O)c1c(F)cccc1F)Nc1cc(Cl)c(OC(F)(F)C(F)C(F)(F)F)cc1Cl (stereo not drawn) [Lufenuron]
- MMP assays efficacy (%) qHTS-HepG2 (HepG2 cells [1]): -119±18%
- IC50 (HepG2 cells [1]): 7.65 ± 0.7 µM
- IC50 (HepG2 cells [2]): 14.1 µM
- Emax (HepG2 cells [2]): 100%
- IC50 (rat primary hepatocytes [3]): 45 ± 7.29 µM
- MMP assays efficacy (%) Rat Hepatocytes (rat primary hepatocytes [4]): -103±8%

Compound: CCN(CC)C(=O)[C@@H]1C=C2c3cccc4[nH]cc(c34)C[C@H]2N(C)C1 [Lysergide]
- MMP assays efficacy (%) qHTS-HepG2 (HepG2 cells [1]): -54±2%
- IC50 (HepG2 cells [1]): 9.03 ± 1.87 µM
- IC50 (HepG2 cells [2]): 17.3 µM
- Emax (HepG2 cells [2]): 48%
- MMP assays IC50 (µM) Rat Hepatocytes (rat primary hepatocytes [3]): inactive
- MMP assays efficacy (%) Rat Hepatocytes (rat primary hepatocytes [4]): inactive

Compound: Cc1ccccc1C(=O)Nc1cccc(OC(C)C)c1 [Mepronil]
- MMP assays efficacy (%) qHTS-HepG2 (HepG2 cells [1]): -73±6%
- IC50 (HepG2 cells [1]): 40.9 ± 19.2 µM
- IC50 (HepG2 cells [2]): 39.8 µM
- Emax (HepG2 cells [2]): 72%
- IC50 (rat primary hepatocytes [3]): 56.2 µM
- MMP assays efficacy (%) Rat Hepatocytes (rat primary hepatocytes [4]): -39±16%

Compound: CS(=O)(=O)c1ccc(C(=O)C2C(=O)CCCC2=O)c([N+](=O)[O-])c1 [Mesotrione]
- MMP assays efficacy (%) qHTS-HepG2 (HepG2 cells [1]): -75±17%
- IC50 (HepG2 cells [1]): 18 ± 12 µM
- IC50 (HepG2 cells [2]): 39.8 µM
- Emax (HepG2 cells [2]): 72%
- MMP assays IC50 (µM) Rat Hepatocytes (rat primary hepatocytes [3]): inactive
- MMP assays efficacy (%) Rat Hepatocytes (rat primary hepatocytes [4]): inactive

Compound: COc1ccc(C(c2ccc(OC)cc2)C(Cl)(Cl)Cl)cc1 [Methoxychlor]
- MMP assays efficacy (%) qHTS-HepG2 (HepG2 cells [1]): -101±17%
- IC50 (HepG2 cells [1]): 26.3 ± 8.69 µM
- IC50 (HepG2 cells [2]): 28.2 µM
- Emax (HepG2 cells [2]): 88%
- IC50 (rat primary hepatocytes [3]): 27.7 ± 11 µM
- MMP assays efficacy (%) Rat Hepatocytes (rat primary hepatocytes [4]): -75±11%

Compound: CO[C@H]1[C@@H](O)C[C@H](O[C@H]2[C@@H](O)C[C@H](O[C@H]3[C@@H](O)C[C@H](O[C@H]4CC[C@@]5(C)[C@H](CC[C@@H]6[C@@H]5C[C@@H](O)[C@]5(C)[C@@H](C7=CC(=O)OC7)CC[C@]65O)C4)O[C@@H]3C)O[C@@H]2C)O[C@@H]1C [Methyldigoxin]
- MMP assays efficacy (%) qHTS-HepG2 (HepG2 cells [1]): -71±5%
- IC50 (HepG2 cells [1]): 0.73 ± 0.09 µM
- IC50 (HepG2 cells [2]): 0.24 µM
- Emax (HepG2 cells [2]): 99%
- MMP assays IC50 (µM) Rat Hepatocytes (rat primary hepatocytes [3]): inactive
- MMP assays efficacy (%) Rat Hepatocytes (rat primary hepatocytes [4]): inactive

Compound: CN(C)c1ccc2nc3ccc(=[N+](C)C)cc-3sc2c1 [Methylene blue]
- MMP assays efficacy (%) qHTS-HepG2 (HepG2 cells [1]): -78±9%
- IC50 (HepG2 cells [1]): 2.88 ± 1.33 µM
- IC50 (HepG2 cells [2]): 2.75 µM
- Emax (HepG2 cells [2]): 89%
- MMP assays IC50 (µM) Rat Hepatocytes (rat primary hepatocytes [3]): inactive
- MMP assays efficacy (%) Rat Hepatocytes (rat primary hepatocytes [4]): inactive

Compound: CN(C)c1ccc(N)cc1 [N,N-Dimethyl-p-phenylenediamine]
- MMP assays efficacy (%) qHTS-HepG2 (HepG2 cells [1]): -100±15%
- IC50 (HepG2 cells [1]): 9.1 ± 0.59 µM
- IC50 (HepG2 cells [2]): 7.08 µM
- Emax (HepG2 cells [2]): 109%
- IC50 (rat primary hepatocytes [3]): 21.7 ± 15.7 µM
- MMP assays efficacy (%) Rat Hepatocytes (rat primary hepatocytes [4]): -69±29%

Compound: Cc1c(O)cccc1C(=O)N[C@@H](CSc1ccccc1)[C@H](O)CN1C[C@H]2CCCC[C@H]2C[C@H]1C(=O)NC(C)(C)C [Nelfinavir mesylate]
- MMP assays efficacy (%) qHTS-HepG2 (HepG2 cells [1]): -120±19%
- IC50 (HepG2 cells [1]): 11.9 ± 6.92 µM
- IC50 (HepG2 cells [2]): 30.8 µM
- Emax (HepG2 cells [2]): 97%
- IC50 (rat primary hepatocytes [3]): 8.68 ± 12.2 µM
- MMP assays efficacy (%) Rat Hepatocytes (rat primary hepatocytes [4]): -61±48%

Compound: O=C(N/N=C/c1ccc([N+](=O)[O-])o1)c1ccc(O)cc1 [Nifuroxazide]
- MMP assays efficacy (%) qHTS-HepG2 (HepG2 cells [1]): -89±9%
- IC50 (HepG2 cells [1]): 1.57 ± 0.3 µM
- IC50 (HepG2 cells [2]): 2.34 µM
- Emax (HepG2 cells [2]): 113%
- IC50 (rat primary hepatocytes [3]): 6.71 ± 1.54 µM
- MMP assays efficacy (%) Rat Hepatocytes (rat primary hepatocytes [4]): -91±23%

Compound: CS(=O)(=O)Nc1ccc([N+](=O)[O-])cc1Oc1ccccc1 [Nimesulide]
- MMP assays efficacy (%) qHTS-HepG2 (HepG2 cells [1]): -101±6%
- IC50 (HepG2 cells [1]): 3.87 ± 0.23 µM
- IC50 (HepG2 cells [2]): 4.16 µM
- Emax (HepG2 cells [2]): 120%
- IC50 (rat primary hepatocytes [3]): 2.74 ± 0.35 µM
- MMP assays efficacy (%) Rat Hepatocytes (rat primary hepatocytes [4]): -117±42%

Compound: CC(=O)Oc1ccccc1C(=O)Nc1ncc([N+](=O)[O-])s1 [Nitazoxanide]
- MMP assays efficacy (%) qHTS-HepG2 (HepG2 cells [1]): -94±10%
- IC50 (HepG2 cells [1]): 1.04 ± 0.96 µM
- IC50 (HepG2 cells [2]): 1.26 µM
- Emax (HepG2 cells [2]): 89%
- IC50 (rat primary hepatocytes [3]): 6.94 ± 4.36 µM
- MMP assays efficacy (%) Rat Hepatocytes (rat primary hepatocytes [4]): -94±13%

Compound: COC(=O)Nc1nc2ccc(C(=O)c3cccs3)cc2[nH]1 [Nocodazole]
- MMP assays efficacy (%) qHTS-HepG2 (HepG2 cells [1]): -62±6%
- IC50 (HepG2 cells [1]): 3.53 ± 1.63 µM
- IC50 (HepG2 cells [2]): 2.18 µM
- Emax (HepG2 cells [2]): 87%
- MMP assays IC50 (µM) Rat Hepatocytes (rat primary hepatocytes [3]): inactive
- MMP assays efficacy (%) Rat Hepatocytes (rat primary hepatocytes [4]): inactive

Compound: C[C@@H]1O[C@@H](O[C@H]2C[C@@H](O)[C@]3(CO)[C@H]4[C@H](O)C[C@]5(C)[C@@H](C6=CC(=O)OC6)CC[C@]5(O)[C@@H]4CC[C@]3(O)C2)[C@H](O)[C@H](O)[C@H]1O [Ouabain]
- MMP assays efficacy (%) qHTS-HepG2 (HepG2 cells [1]): -88±7%
- IC50 (HepG2 cells [1]): 0.18 µM
- IC50 (HepG2 cells [2]): 0.22 µM
- Emax (HepG2 cells [2]): 94%
- MMP assays IC50 (µM) Rat Hepatocytes (rat primary hepatocytes [3]): inactive
- MMP assays efficacy (%) Rat Hepatocytes (rat primary hepatocytes [4]): inactive
